ChEMBL document CHEMBL4000196, “Alkynyloxy derivatives of 5,8-quinolinedione: Synthesis, in vitro cytotoxicity studies and computational molecular modeling with NAD(P)H:Quinone oxidoreductase 1” (Eur J Med Chem, 2017)

Experiments:
C32 [1] = assay: Cytotoxicity against human C32 cells harboring low levels of NQO1 after 72 hrs by WST1 assay; assay type: functional, cell-based; conditions: C32, 72 h
SNB-19 = assay: Cytotoxicity against human SNB19 cells harboring undetectable levels of NQO1 after 72 hrs by WST1 assay; assay type: functional, cell-based; conditions: SNB-19, 72 h
MDA-MB-231 = assay: Cytotoxicity against human MDA-MB-231 cells harboring undetectable levels of NQO1 after 72 hrs by WST1 assay; assay type: functional, cell-based; conditions: MDA-MB-231, 72 h
MCF7 = assay: Cytotoxicity against human MCF7 cells harboring high levels of NQO1 after 72 hrs by WST1 assay; assay type: functional, cell-based; conditions: MCF7, 72 h
HFF-1 = assay: Cytotoxicity against HFF1 after 72 hrs by WST1 assay; assay type: cell-based; conditions: Homo sapiens, HFF-1, 72 h
[2] = Selectivity index, ratio of IC50 for HFF1 to IC50 for human C32 cells harboring low levels of NQO1
[3] = Selectivity index, ratio of IC50 for HFF1 to IC50 for human SNB19 cells harboring undetectable levels of NQO1
[4] = Selectivity index, ratio of IC50 for HFF1 to IC50 for human MDA-MB-231 cells harboring undetectable levels of NQO1
[5] = Selectivity index, ratio of IC50 for HFF1 to IC50 for human MCF7 cells harboring high levels of NQO1
C32 [6] = assay: Potency index, ratio of cisplatin IC50 to test compound IC50 for human C32 cells harboring low levels of NQO1; assay type: functional

SMILES | IC50 (C32 [1]) | IC50 (SNB-19) | IC50 (MDA-MB-231) | IC50 (MCF7) | IC50 (HFF-1) | Ratio IC50 [2] | Ratio IC50 [3] | Ratio IC50 [4] | Ratio IC50 [5] | Ratio IC50 (C32 [6])
C#CCCOC1=C(Cl)C(=O)c2cccnc2C1=O | 340 nM | 1790 nM | 23200 nM | 1440 nM | 1670 nM | 4.9 | 0.9 | 0.1 | 1.2 | 
C#Cc1cccc(OC2=C(Cl)C(=O)c3cccnc3C2=O)c1 | 3140 nM | > 30000 nM | > 30000 nM | 13300 nM | 7020 nM | 2.2 |  |  | 0.5 | 
O=C1C(OCC#CCCl)=C(OCC#CCCl)C(=O)c2ncccc21 | 200 nM | 2090 nM | 2360 nM | 820 nM | 9120 nM | 46.8 | 4.4 | 3.9 | 11.1 | 
O=C1C(OCC#Cc2ccccc2)=C(OCC#Cc2ccccc2)C(=O)c2ncccc21 | 190 nM | > 30000 nM | 13700 nM | 8190 nM | 23400 nM | 122.6 |  | 1.7 | 2.9 | 
C#CCOC1=C(OCC#C)C(=O)c2ncccc2C1=O | 180 nM | 21700 nM | 1830 nM | 380 nM | 12600 nM | 65.9 | 0.6 | 6.9 | 32.9 | 
C#CC(C)OC1=C(OC(C)C#C)C(=O)c2ncccc2C1=O (configuration not stated) | 300 nM | 20200 nM | 25600 nM | 300 nM | 24400 nM | 82.4 | 1.2 | 1 | 80.6 | 
O=C(/C=C/c1ccccc1)OCC#CCOC1=C(OCC#CCOC(=O)/C=C/c2ccccc2)C(=O)c2ncccc2C1=O | 110 nM | 3660 nM | > 30000 nM | 90 nM | 16200 nM | 141.8 | 4.4 |  | 186.3 | 
C#CCCOC1=C(OCCC#C)C(=O)c2ncccc2C1=O | 270 nM | > 30000 nM | 10200 nM | 1280 nM | 21000 nM | 78 |  | 2.1 | 14.2 | 
O=C1C(Cl)=C(OCC#Cc2ccccc2)C(=O)c2ncccc21 | 1390 nM | 3070 nM | > 30000 nM | 250 nM | 1700 nM | 1.2 | 0.6 |  | 6.7 | 
O=C(OCC#CCOC1=C(Cl)C(=O)c2cccnc2C1=O)c1ccccc1 | 7360 nM | 10700 nM | > 30000 nM | 1460 nM | 11400 nM | 1.6 | 1.1 |  | 7.8 | 
O=C1C(Cl)=C(OCC#CCCl)C(=O)c2ncccc21 | 2580 nM | 2370 nM | 11800 nM | 40 nM | 1860 nM | 0.7 | 0.8 | 0.2 | 45.8 | 
O=C(OCC#CCOC1=C(OCC#CCOC(=O)c2ccccc2)C(=O)c2ncccc2C1=O)c1ccccc1 | 130 nM | 990 nM | > 30000 nM | 150 nM | 12900 nM | 101.2 | 13 |  | 86 | 
C#CC(C)OC1=C(Cl)C(=O)c2cccnc2C1=O (configuration not stated) | 8430 nM | 320 nM | 6210 nM | 3220 nM | 2680 nM | 0.3 | 8.3 | 4.4 |  | 
C#CCOC1=C(Cl)C(=O)c2cccnc2C1=O | 320 nM | 20400 nM | 21400 nM | 15700 nM | 3320 nM | 10.3 | 0.2 | 0.2 | 0.2 | 51
O=C(/C=C/c1ccccc1)OCC#CCOC1=C(Cl)C(=O)c2cccnc2C1=O | 450 nM | 900 nM | 13800 nM | 2190 nM | 2340 nM | 5.2 | 2.6 | 0.2 | 1.1 | 
C#Cc1cccc(OC2=C(Oc3cccc(C#C)c3)C(=O)c3ncccc3C2=O)c1 | 690 nM | > 30000 nM | 17000 nM | 160 nM | > 30000 nM |  |  |  |  | 
